# Reference: PMC5700102, “Primer synthesis by a eukaryotic-like archaeal primase is independent of its Fe-S cluster” (Nature Communications, 2017)
# Target: T1, PriSLX (Saccharolobus solfataricus, UniProt Q97Z83+Q97ZS7)
# T1 construct: gene priS; heterotrimer co-expressed in E. coli Rosetta2(DE3) from pETDuet PriL/PriS and pRSFDuet PriX; no tag mentioned; PriL 307 and PriX 154 residues; with DNA primase large subunit PriL
# T1 sequence (Q97Z83 1-330): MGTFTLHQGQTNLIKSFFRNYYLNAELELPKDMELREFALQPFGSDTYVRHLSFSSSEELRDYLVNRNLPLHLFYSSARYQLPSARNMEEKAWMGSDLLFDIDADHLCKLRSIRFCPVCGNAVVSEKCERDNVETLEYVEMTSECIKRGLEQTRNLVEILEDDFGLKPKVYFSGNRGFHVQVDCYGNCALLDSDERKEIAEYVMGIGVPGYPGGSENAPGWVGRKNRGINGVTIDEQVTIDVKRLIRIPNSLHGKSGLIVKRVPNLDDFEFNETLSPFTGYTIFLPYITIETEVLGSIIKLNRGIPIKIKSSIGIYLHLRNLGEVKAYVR
# T1 sequence (Q97ZS7 1-154): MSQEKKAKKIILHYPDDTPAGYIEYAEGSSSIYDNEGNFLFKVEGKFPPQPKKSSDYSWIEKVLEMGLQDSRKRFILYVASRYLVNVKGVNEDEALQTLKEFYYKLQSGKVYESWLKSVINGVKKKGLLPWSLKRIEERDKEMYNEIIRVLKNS
# T1 sequence (Q9UWW1 1-307 partner): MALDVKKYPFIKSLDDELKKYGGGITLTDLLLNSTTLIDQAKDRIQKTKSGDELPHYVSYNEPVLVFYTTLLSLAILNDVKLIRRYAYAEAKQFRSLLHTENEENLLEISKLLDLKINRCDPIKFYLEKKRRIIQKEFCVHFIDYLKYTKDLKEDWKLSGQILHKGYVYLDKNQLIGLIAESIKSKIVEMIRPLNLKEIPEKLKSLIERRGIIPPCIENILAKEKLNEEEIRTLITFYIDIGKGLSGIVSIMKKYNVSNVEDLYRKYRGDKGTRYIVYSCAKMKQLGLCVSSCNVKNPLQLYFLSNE
# Assay: X-ray crystal structure, […] Å
# Type: binding
# Conditions: two molecules bound: PriS active site (elongation site) and PriX initiation site at the PriX-PriS interface; MnCl2
structure (smiles),measurement,value
Nc1ncnc2c1ncn2[C@@H]1O[C@H](COP(=O)(O)CP(=O)(O)OP(=O)(O)O)[C@@H](O)[C@H]1O [AMPCPP],"X-ray crystal structure, 2.9 Å",The first AMPCPP was bound in the active site of PriS
